# Experimental data published in patent publication US20100311677A1, “Active Ingredient Combinations Having Insecticidal and Acaricidal Properties” (Bayer CropScience AG, priority 2007, published 2010).
# Read-outs that look alike come from different tables or passages of the source.
# How the values were obtained:
# Myzus persicae = Myzus persicae test (Example C), sprayed cabbage leaves; assay type: in vivo
# Spodoptera frugiperda = Spodoptera frugiperda larvae test (Example F), sprayed cabbage leaves; assay type: in vivo
# Source text: Spodoptera frugiperda Larvae Test
# Phaedon cochleariae = Phaedon cochleariae larvae test (Example E), sprayed cabbage leaves; settings: for Kill in % after 6d / Kill in % after 2d: alone
# Tetranychus urticae = Tetranychus urticae test (OP-resistant/spray treatment) (Example G), bean leaf disks; assay type: in vivo
# Method: Tetranychus urticae Test (OP-Resistant/Spray Treatment)
# After the desired period of time, the activity in % is determined.
# Bemisia tabaci = Bemisia tabaci test (Example B), sprayed cotton leaves, larval stages; assay type: in vivo; settings: 4 g/ha, alone
# Nilaparvata lugens = Nilaparvata lugens test (Example D), sprayed rice plants; assay type: in vivo; settings: 0.8 g/ha, alone
# Aphis gossypii = Aphis gossypii test (Example A), sprayed cotton leaves; assay type: in vivo; settings: 0.16 ppm, alone
# [1] = Spodoptera frugiperda, 144 h, alone, after 6 d, read-out: Kill in % after 6d
# [2] = Phaedon cochleariae, in Brassica oleracea, 144 h, read-out: Kill in % after 6d
# [3] = Myzus persicae, 144 h, alone, after 6 d, read-out: Kill in % after 6d
# [4] = Spodoptera frugiperda, 144 h, 0.8 g/ha, alone, after 6 d, read-out: Kill in % after 6d
# [5] = Tetranychus urticae, foliar, 144 h, active compound alone, 4 g/ha, after 6 d, read-out: Kill in % after 6 d
# [6] = Myzus persicae, 144 h, 4 g/ha, alone, after 6 d, read-out: Kill in % after 6d
# [7] = Tetranychus urticae, foliar, 144 h, active compound alone, 20 g/ha, after 6 d, read-out: Kill in % after 6 d
compound,measurement,setting,value
"CC1(C)C(/C=C(\Cl)C(F)(F)F)C1C(=O)OC(C#N)c1cccc(Oc2ccccc2)c1 [L-cyhalothrin (12a), lambda-cyhalothrin]",pest or weed control at 0.032 g/ha,"Myzus persicae; Myzus persicae, 144 h, 0.032 g/ha, alone, after 6 d, read-out: Kill in % after 6d",0%
same,pest or weed control at 4 g/ha,Spodoptera frugiperda; [1],50%
same,pest or weed control at 0.16 g/ha,Phaedon cochleariae; [2],0%
"COP(=O)(NC(C)=O)SC (centres unmarked) [acephate (112), acephate]",pest or weed control at 0.8 g/ha,"Myzus persicae; Myzus persicae, 144 h, read-out: Kill in % after 6d",0%
same,pest or weed control at 20 g/ha,"Spodoptera frugiperda; Spodoptera frugiperda, 144 h, read-out: Kill in % after 6d",33%
same,pest or weed control at 100 g/ha,"Tetranychus urticae; Tetranychus urticae, foliar, 144 h, read-out: Kill in % after 6 d",0%
"CC1(C)C(C=C(Cl)Cl)C1C(=O)OC(C#N)c1cccc(Oc2ccccc2)c1 (stereo not drawn) [alpha-cypermethrin (2), alpha-cypermethrin]",pest or weed control at 0.16 g/ha,Myzus persicae; [3],0%
same,Kill in % after 2d,"Spodoptera frugiperda; 0.8 g/ha, alone",33%
same,pest or weed control at 0.8 g/ha,Phaedon cochleariae; [2],0%
same,pest or weed control at 0.8 g/ha,"Tetranychus urticae; Tetranychus urticae, foliar, 144 h, active compound alone, 0.8 g/ha, after 6 d, read-out: Kill in % after 6 d",0%
"Cc1c(COC(=O)C2C(/C=C(\Cl)C(F)(F)F)C2(C)C)cccc1-c1ccccc1 (centres unmarked) [bifenthrin (18), bifenthrin]",pest or weed control at 0.8 g/ha,Spodoptera frugiperda; [4],0%
"CC(C)N1C(=O)N(c2ccccc2)CS/C1=N\C(C)(C)C [buprofezin (42), buprofezin]",Kill in % after 1d,"Myzus persicae; 4 g/ha, alone, after 1 d",0%
same,Kill in % after 10d,Bemisia tabaci,30%
same,Kill in % after 6d,Nilaparvata lugens,10%
same,pest or weed control at 100 g/ha,Phaedon cochleariae; [2],0%
same,Kill in % after 2d,"Tetranychus urticae; 100 g/ha, alone, after 2 d",0%
Cc1cc(C(F)(C(F)(F)F)C(F)(F)F)ccc1NC(=O)c1cccc(Cl)c1C(=O)N[C@@H](C)CS(C)(=O)=O [compound (55)],pest or weed control at 0.16 g/ha,Myzus persicae; [3],0%
same,pest or weed control at 0.8 g/ha,Spodoptera frugiperda; [4],50%
same,pest or weed control at 0.8 g/ha,Phaedon cochleariae; [2],0%
same,pest or weed control at 4 g/ha,Tetranychus urticae; [5],0%
"CC1(C)C(C=C(Cl)Cl)C1C(=O)OC(C#N)c1cccc(Oc2ccccc2)c1 (centres unmarked) [cypermethrin (5), cypermethrin]",pest or weed control at 0.8 g/ha,Spodoptera frugiperda; [4],17%
same,pest or weed control at 4 g/ha,Phaedon cochleariae; [2],67%
same,pest or weed control at 4 g/ha,Tetranychus urticae; [5],0%
"Cc1cc(C(F)(C(F)(F)F)C(F)(F)F)ccc1NC(=O)c1cccc(I)c1C(=O)NC(C)(C)CS(C)(=O)=O [flubendiamide (54), flubendiamide]",Kill in % after 6d,"Myzus persicae; 0.8 g/ha, alone, after 6 d",0%
same,Kill in % after 6d,"Spodoptera frugiperda; 0.8 g/ha, alone, after 6 d",0%
same,Kill in % after 6d,Phaedon cochleariae; 20 g/ha,0%
same,Kill in % after 6d,"Tetranychus urticae; active compound alone, 20 g/ha, after 6 d",0%
"CC1(C)[C@H](/C=C(\Cl)C(F)(F)F)[C@@H]1C(=O)O[C@H](C#N)c1cccc(Oc2ccccc2)c1 [gamma-cyhalothrin (12b), gamma-cyhalothrin]",Kill in % after 2d,"Spodoptera frugiperda; 0.032 g/ha, alone",5%
same,Kill in % after 6d,Aphis gossypii,0%
"COC(=O)N(C(=O)N1COC2(C(=O)OC)Cc3cc(Cl)ccc3C2=N1)c1ccc(OC(F)(F)F)cc1 (centres unmarked) [indoxacarb (94), indoxacarb]",pest or weed control at 4 g/ha,Myzus persicae; [6],0%
same,pest or weed control at 4 g/ha,Spodoptera frugiperda; [1],0%
same,pest or weed control at 100 g/ha,"Tetranychus urticae; Tetranychus urticae, foliar, 144 h, active compound alone, 100 g/ha, after 6 d, read-out: Kill in % after 6 d",0%
"O=C(NC(=O)c1c(F)cccc1F)Nc1cc(Cl)c(OC(F)(F)C(F)C(F)(F)F)cc1Cl (centres unmarked) [lufenuron (34), lufenuron]",pest or weed control at 0.8 g/ha,"Myzus persicae; Myzus persicae, 144 h, 0.8 g/ha, alone, after 6 d, read-out: Kill in % after 6d",0%
same,Kill in % after 2d,"Spodoptera frugiperda; 100 g/ha, alone",0%
same,pest or weed control at 20 g/ha,Tetranychus urticae; [7],0%
"COP(N)(=O)SC (centres unmarked) [methamidophos (113), methamidophos]",pest or weed control at 4 g/ha,Myzus persicae; [6],0%
same,Kill in % after 2d,"Spodoptera frugiperda; 100 g/ha, alone",67%
same,Kill in % after 2d,Phaedon cochleariae; 100 g/ha,0%
same,pest or weed control at 20 g/ha,Tetranychus urticae; [7],0%
"CCOC(=O)OC1=C(c2cc(C)ccc2C)C(=O)N[C@]12CC[C@@H](OC)CC2 [spirotetramat (98), spirotetramat]",pest or weed control at 20 g/ha,"Spodoptera frugiperda; Spodoptera frugiperda, 144 h, 20 g/ha, alone, after 6 d, read-out: Kill in % after 6d",0%
same,pest or weed control at 20 g/ha,Phaedon cochleariae; [2],50%
same,pest or weed control at 4 g/ha,Tetranychus urticae; [5],50%
"CS/C(C)=N/OC(=O)N(C)SN(C)C(=O)O/N=C(\C)SC [thiodicarb (111), thiodicarb]",pest or weed control at 4 g/ha,Spodoptera frugiperda; [1],67%
same,pest or weed control at 100 g/ha,Phaedon cochleariae; [2],0%
same,pest or weed control at 20 g/ha,Tetranychus urticae; [7],0%
"O=C(NC(=O)c1ccccc1Cl)Nc1ccc(OC(F)(F)F)cc1 [triflumuron (36), triflumuron]",pest or weed control at 4 g/ha,Myzus persicae; [6],0%
same,pest or weed control at 0.16 g/ha,"Spodoptera frugiperda; Spodoptera frugiperda, 144 h, 0.16 g/ha, alone, after 6 d, read-out: Kill in % after 6d",0%
same,Kill in % after 2d,Phaedon cochleariae; 20 g/ha,17%
same,pest or weed control at 20 g/ha,Tetranychus urticae; [7],0%
spinosad [spinosad (79)],Kill in % after 6d,"Myzus persicae; 0.8 g/ha, alone, after 6 d",0%
same,Kill in % after 2d,"Spodoptera frugiperda; 0.8 g/ha, alone",0%
same,Kill in % after 6d,Phaedon cochleariae; 0.8 g/ha,0%
same,Kill in % after 6d,"Tetranychus urticae; active compound alone, 4 g/ha, after 6 d",80%
